Laboratory results taken from the NIST ThermoML archive (doi:10.1016/j.tca.2005.08.034).

Assays:
[1] = 298.15 K
[2] = refractive index (Na D-line) (dimensionless); settings: 298.15 K; 101.33 kPa; Liquid; refractometer
[3] = xn = mol fraction of the nth substance listed; settings: 298.15 K; for surface tension liquid-gas: Drop volume; for mass density / speed of sound: 101.3 kPa, Liquid; for mass density: Vibrating tube method
[4] = excess molar enthalpy (molar enthalpy of mixing); xn = mol fraction of the nth substance listed; settings: 298.15 K, 101.3 kPa, Liquid, Flow calorimetry
[5] = refractive index (Na D-line) (dimensionless); φn = volume fraction of the nth substance listed; settings: 298.15 K, 101.3 kPa, Liquid, refractometer

CC1CCCO1 (centres undefined) [2-methyltetrahydrofuran]
Settings | surface tension liquid-gas [mN/m]
[1], Drop volume | 24.68

Settings | speed of sound [m/s]
[1], 101.33 kPa, Liquid | 1202.8

Settings | mass density [kg/m3]
[1], 101.33 kPa, Liquid, Vibrating tube method | 849.2

Settings | refractive index
[2] | 1.40287

CC1CCCO1 (centres undefined) [2-methyltetrahydrofuran] + c1ccccc1
Settings | excess molar enthalpy [kcal/mol] | mass density [kg/m3] | refractive index | speed of sound [m/s] | surface tension liquid-gas [mN/m]
[3], x1 = 0.0456 | – | 872.27 | – | 1295.7 | –
[3], x1 = 0.0536 | – | – | – | – | 28.33
[3], x1 = 0.0971 | – | – | – | – | 28.15
[3], x1 = 0.0981 | – | 871 | – | 1290.9 | –
[3], x1 = 0.1962 | – | – | – | – | 27.74
[3], x1 = 0.1987 | – | 868.57 | – | 1281.6 | –
[3], x1 = 0.2996 | – | 866.21 | – | 1271.8 | –
[3], x1 = 0.3039 | – | – | – | – | 27.3
[3], x1 = 0.395 | – | 863.99 | – | 1263 | –
[3], x1 = 0.396 | – | – | – | – | 26.92
[3], x1 = 0.4976 | – | – | – | – | 26.51
[3], x1 = 0.4979 | – | 861.47 | – | 1253.1 | –
[3], x1 = 0.5949 | – | 859.05 | – | 1243.6 | –
[3], x1 = 0.5976 | – | – | – | – | 26.12
[3], x1 = 0.6798 | – | 856.87 | – | 1235.1 | –
[3], x1 = 0.704 | – | – | – | – | 25.71
[3], x1 = 0.7992 | – | 853.68 | – | 1222.7 | –
[3], x1 = 0.8033 | – | – | – | – | 25.36
[3], x1 = 0.896 | – | 851.23 | – | 1212.7 | –
[3], x1 = 0.9034 | – | – | – | – | 25.01
[3], x1 = 0.9486 | – | 850.1 | – | 1207.5 | –
[3], x1 = 0.9535 | – | – | – | – | 24.84
[4], x1 = 0.054 | -0.00526 | – | – | – | –
[4], x1 = 0.097 | -0.011 | – | – | – | –
[4], x1 = 0.188 | -0.0232 | – | – | – | –
[4], x1 = 0.279 | -0.033 | – | – | – | –
[4], x1 = 0.377 | -0.0409 | – | – | – | –
[4], x1 = 0.494 | -0.0449 | – | – | – | –
[4], x1 = 0.575 | -0.0464 | – | – | – | –
[4], x1 = 0.679 | -0.0423 | – | – | – | –
[4], x1 = 0.783 | -0.0332 | – | – | – | –
[4], x1 = 0.89 | -0.0196 | – | – | – | –
[4], x1 = 0.944 | -0.0108 | – | – | – | –
[5], φ1 = 0.0603 | – | – | 1.49204 | – | –
[5], φ1 = 0.1086 | – | – | 1.48747 | – | –
[5], φ1 = 0.2167 | – | – | 1.47724 | – | –
[5], φ1 = 0.331 | – | – | 1.46642 | – | –
[5], φ1 = 0.4263 | – | – | 1.4574 | – | –
[5], φ1 = 0.5289 | – | – | 1.44769 | – | –
[5], φ1 = 0.6273 | – | – | 1.43835 | – | –
[5], φ1 = 0.7294 | – | – | 1.42866 | – | –
[5], φ1 = 0.8223 | – | – | 1.41981 | – | –
[5], φ1 = 0.9137 | – | – | 1.41109 | – | –
[5], φ1 = 0.9587 | – | – | 1.40681 | – | –

Fc1ccccc1 [fluorobenzene] + CC1CCCO1
Settings | excess molar enthalpy [kcal/mol] | mass density [kg/m3] | refractive index | speed of sound [m/s] | surface tension liquid-gas [mN/m]
[3], x2 = 0.0364 | – | – | – | – | 27.39
[3], x2 = 0.0456 | – | 1011.05 | – | 1168.5 | –
[3], x2 = 0.099 | – | 1001.97 | – | 1171.6 | –
[3], x2 = 0.108 | – | – | – | – | 27.27
[3], x2 = 0.1923 | – | 986.13 | – | 1176.9 | –
[3], x2 = 0.1998 | – | – | – | – | 27.07
[3], x2 = 0.2882 | – | 969.82 | – | 1182.1 | –
[3], x2 = 0.2952 | – | – | – | – | 26.83
[3], x2 = 0.3925 | – | 952.32 | – | 1187.1 | –
[3], x2 = 0.3998 | – | – | – | – | 26.52
[3], x2 = 0.4884 | – | 936.02 | – | 1191.1 | –
[3], x2 = 0.4958 | – | – | – | – | 26.21
[3], x2 = 0.5925 | – | 918.32 | – | 1194.8 | –
[3], x2 = 0.6048 | – | – | – | – | 25.86
[3], x2 = 0.6784 | – | – | – | – | 25.62
[3], x2 = 0.6907 | – | 901.51 | – | 1197.6 | –
[3], x2 = 0.7796 | – | – | – | – | 25.3
[3], x2 = 0.7942 | – | 883.72 | – | 1199.4 | –
[3], x2 = 0.8938 | – | 866.65 | – | 1201 | –
[3], x2 = 0.9097 | – | – | – | – | 24.92
[3], x2 = 0.9481 | – | 857.59 | – | 1201.9 | –
[3], x2 = 0.9707 | – | – | – | – | 24.76
[4], x2 = 0.056 | -0.0191 | – | – | – | –
[4], x2 = 0.101 | -0.0373 | – | – | – | –
[4], x2 = 0.195 | -0.0746 | – | – | – | –
[4], x2 = 0.288 | -0.103 | – | – | – | –
[4], x2 = 0.388 | -0.125 | – | – | – | –
[4], x2 = 0.474 | -0.138 | – | – | – | –
[4], x2 = 0.583 | -0.136 | – | – | – | –
[4], x2 = 0.685 | -0.124 | – | – | – | –
[4], x2 = 0.786 | -0.0966 | – | – | – | –
[4], x2 = 0.889 | -0.0574 | – | – | – | –
[4], x2 = 0.94 | -0.0323 | – | – | – | –
[5], φ2 = 0.039 | – | – | 1.4608 | – | –
[5], φ2 = 0.1151 | – | – | 1.45666 | – | –
[5], φ2 = 0.2069 | – | – | 1.4516 | – | –
[5], φ2 = 0.3103 | – | – | 1.44577 | – | –
[5], φ2 = 0.4171 | – | – | 1.4396 | – | –
[5], φ2 = 0.5137 | – | – | 1.43392 | – | –
[5], φ2 = 0.6218 | – | – | 1.42736 | – | –
[5], φ2 = 0.6938 | – | – | 1.42282 | – | –
[5], φ2 = 0.7916 | – | – | 1.41661 | – | –
[5], φ2 = 0.9154 | – | – | 1.40849 | – | –
[5], φ2 = 0.9727 | – | – | 1.40473 | – | –
